# According to patent US20190374533A1, “COMPOUNDS AND METHODS FOR INHIBITING NHE-MEDIATED ANTIPORT IN THE TREATMENT OF DISORDERS ASSOCIATED WITH FLUID RETENTION OR SALT OVERLOAD AND GASTROINTESTINAL TRACT DISORDERS” (Ardelyx, Inc., priority 2008, published 2019):
# Counter-ions that a name gives are not always drawn.
# Tests used:
# [1] = target: T1, rat NHE-3 (Rattus norvegicus, UniProt P26433); assay: Cell-based assay of NHE-3 activity (Pharmacological Test Example 1); details: OK cells expressing rat NHE-3, 0-30 uM test compound, 5 uM EIPA
# T1 construct: expressed in transfected cells; host or cells: Opossum kidney (OK) cells (ATCC), electroporated
# Method in brief: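 OK cells electroporated with rat NHE-3, loaded with 5 uM BCECF-AM in NH4Cl-HEPES (pH 7.4) for 30 min at room temperature, then acid-loaded 10 min in Na+-free choline buffer. Na+-dependent H+ antiport read as initial rate of pH-dye change; pIC50 from 3-6 replicate averages.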
# [2] = system: fecal water content; assay: Pharmacodynamic model: effect of test compounds on fecal water content; type: in vivo, rat; details: female Sprague Dawley rats, 3 mg/kg oral, feces collected 16 hrs; for % Fecal water: mean of 6
# Description: Normal female Sprague Dawlev rats (Charles-River laboratories international, Hollister, Calif.), 7-8 weeks old with body weight 175-200 g were acclimated for at least 3 days before proceeding to experiments. The animals were provided food (Harlan Teklad 2018c) and water ad lib, through the experiment. Animals were randomly grouped with 6 rats per group.
# The experiments were initiated by orally dosing test compounds at 3 mg/kg in volume of 10 ml/kg. Rats from control group were gavaged with the same volume of vehicle (water). After dosing, rats were placed in metabolic cages for 16 hrs (overnight). Food and water consumption were monitored. After sixteen hours, feces and urine were collected. The percent of fecal water was measured by weighing fecal samples before and after drying.
# Representative data of % fecal water content are shown in Table 12 (data are expressed as means, with 6 animals per data point). The differences between control and treated groups were evaluated by one way ANOVA with Dunnett post tests. Results are significant if p<0.05.
# [3] = Parallel artificial membrane permeability assay (PAMPA); details: pH 7.4
# [4] = Determination of compound Cmax and AUC; type: in vivo; details: rat; Sprague-Dawley rats, oral gavage, serum 0.5-4 h; actual oral dose (mg/kg) given
# Method in brief: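 Sprague-Dawley rats dosed orally by gavage at 2.5 mg/kg; serum sampled at 0.5, 1, 2 and 4 h. Acetonitrile protein precipitation, then LC/MS/MS quantitation against a standard curve.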
# T1 sequence (P26433 29-831): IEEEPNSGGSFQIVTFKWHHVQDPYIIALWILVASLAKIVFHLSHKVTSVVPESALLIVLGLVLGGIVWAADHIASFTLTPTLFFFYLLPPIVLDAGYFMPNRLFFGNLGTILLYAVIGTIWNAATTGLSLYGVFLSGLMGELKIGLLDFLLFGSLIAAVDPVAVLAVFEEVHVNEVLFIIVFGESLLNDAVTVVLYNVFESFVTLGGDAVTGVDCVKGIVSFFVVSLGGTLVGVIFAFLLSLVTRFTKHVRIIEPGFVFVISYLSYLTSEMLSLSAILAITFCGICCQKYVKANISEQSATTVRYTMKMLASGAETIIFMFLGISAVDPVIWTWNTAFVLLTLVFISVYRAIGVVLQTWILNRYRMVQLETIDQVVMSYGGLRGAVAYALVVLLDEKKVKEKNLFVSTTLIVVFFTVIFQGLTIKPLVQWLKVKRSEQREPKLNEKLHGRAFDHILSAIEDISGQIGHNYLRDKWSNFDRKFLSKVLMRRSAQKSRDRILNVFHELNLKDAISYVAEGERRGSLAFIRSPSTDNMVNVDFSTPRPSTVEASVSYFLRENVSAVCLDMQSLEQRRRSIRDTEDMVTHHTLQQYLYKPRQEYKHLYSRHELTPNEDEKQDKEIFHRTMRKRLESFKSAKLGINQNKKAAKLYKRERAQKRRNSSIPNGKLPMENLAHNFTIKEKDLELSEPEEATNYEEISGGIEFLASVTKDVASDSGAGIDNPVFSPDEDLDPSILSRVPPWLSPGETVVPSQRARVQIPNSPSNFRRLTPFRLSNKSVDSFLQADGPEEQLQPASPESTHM
Compound,rat NHE-3 Average pIC50 [1],"Papp A→B at 3 h, 20 uM [3]",also measured
"CN1Cc2c(Cl)cc(Cl)cc2C(c2cccc(S(=O)(=O)NCCOCCOCCNC(=O)NCCCCNC(=O)NCCOCCOCCNS(=O)(=O)c3cccc(C4CN(C)Cc5c(Cl)cc(Cl)cc54)c3)c2)C1 (stereo not drawn) [Example 236, N,N′-(10,17-dioxo-3,6,21,24-tetraoxa-9,11,16,18-tetraazahexacosane-1,26-diyl)bis(3-(6,8-dichloro-2-methyl-1,2,3,4-tetrahydroisoquinolin-4-yl)benzenesulfonamide)]",>7,–,% Fecal water (% of control) [2]: 128% of control; % Fecal water [2]: 64%
"CN1Cc2c(Cl)cc(Cl)cc2[C@H](c2ccc(S(=O)(=O)NCCOCCOCCNC(=O)CCC(=O)NCCOCCOCCNS(=O)(=O)c3ccc([C@@H]4CN(C)Cc5c(Cl)cc(Cl)cc54)cc3)cc2)C1 (single isomer, unassigned) [Example 200, N1,N4-bis(2-(2-(2-(4-((S or R)-6,8-dichloro-2-methyl-1,2,3,4-tetrahydroisoquinolin-4-yl)phenylsulfonamido)ethoxy)ethoxy)ethyl)succinamide bis-hydrochloride salt]",–,–,IC50 ([1]; read-out: rat NHE-3 Average pIC50 (converted)): < 0.1 µM; % Fecal water (% of control) [2]: 124% of control; % Fecal water [2]: 62%
"C/C(=C\c1cc(F)c(Oc2ccc(S(=O)(=O)NCCOCCOCCOCCNC(=O)CCCCCCC(=O)NCCOCCOCCOCCNS(=O)(=O)c3ccc(Oc4c(F)cc(/C=C(\C)C(=O)N=C(N)N)cc4F)cc3)cc2)c(F)c1)C(=O)N=C(N)N [Example 47, N,N′-(13,20 dioxo-3,6,9, 24, 27, 30-hexaoxa-12, 21-diazadotriacontane-1,32-diyl)bis[(E)-N-(diaminomethylene)-3-(3,5-difluoro-4-(4-sulfamoylphenoxy)phenyl)-2-methylacrylamide]]",>7,< 0.01 ×10⁻⁶ cm/s,–
"CN1Cc2c(Cl)cc(Cl)cc2C(c2cccc(NS(=O)(=O)NCCP(=O)(O)O)c2)C1 (stereo not drawn) [Example 31, 2-(N-(3-(6,8-dichloro-2-methyl-1,2,3,4-tetrahydroisoquinolin-4-yl)phenyl)sulfamoylamino)ethylphosphonic acid]",5 to 6,0.61 ×10⁻⁶ cm/s,–
"NC(N)=Nc1nc(-c2cccc(N3CCN(CCO)CC3)c2)c2cc(Cl)ccc2n1 [Example 68, 2-(6-chloro-4-(3-(4-(2-hydroxyethyl)piperazin-1-yl)phenyl)quinazolin-2-yl)guanidine]",6 to 7,0.35 ×10⁻⁶ cm/s,–
"CN1Cc2c(Cl)cc(Cl)cc2C(c2ccc(S(=O)(=O)NCCOCCOCCNC(=O)Nc3ccc(NC(=O)NCCOCCOCCNS(=O)(=O)c4ccc(C5CN(C)Cc6c(Cl)cc(Cl)cc65)cc4)cc3)cc2)C1 (stereo not drawn) [Example 239, N,N′-(2,2′-(2,2′-(2,2′-(1,4-phenylenebis(azanediyl))bis(oxomethylene)bis(azanediyl)bis(ethane-2,1-diyl))bis(oxy)bis(ethane-2,1-diyl))bis(oxy)bis(ethane-2,1-diyl))bis(4-(6,8-dichloro-2-methyl-1,2,3,4-tetrahydroisoquinolin-4-yl)benzenesulfonamide)]",–,–,% Fecal water (% of control) [2]: 114% of control; % Fecal water [2]: 58%
"NC(N)=Nc1nc(-c2ccc(N3CCN(CCO)CC3)cc2)c2cc(Cl)ccc2n1 [Example 69, 2-(6-chloro-4-(4-(4-(2-hydroxyethyl)piperazin-1-yl)phenyl)quinazolin-2-yl)guanidine]",6 to 7,0.3 ×10⁻⁶ cm/s,–
"CN1Cc2c(Cl)cc(Cl)cc2C(c2cccc(S(=O)(=O)NCCOCCOCCNC(=O)Nc3ccc(NC(=O)NCCOCCOCCNS(=O)(=O)c4cccc(C5CN(C)Cc6c(Cl)cc(Cl)cc65)c4)cc3)c2)C1 (stereo not drawn) [Example 237, N,N′-(2,2′-(2,2′-(2,2′-(1,4-phenylenebis(azanediyl))bis(oxomethylene)bis(azanediyl)bis(ethane-2,1-diyl))bis(oxy)bis(ethane-2,1-diyl))bis(oxy)bis(ethane-2,1-diyl))bis(3-(6,8-dichloro-2-methyl-1,2,3,4-tetrahydroisoquinolin-4-yl)benzenesulfonamide)]",>7,–,% Fecal water (% of control) [2]: 120% of control; % Fecal water [2]: 60%
"CN1Cc2c(Cl)cc(Cl)cc2C(c2ccc(NS(=O)(=O)NCCP(=O)([O-])[O-])cc2)C1.[Na+].[Na+] (stereo not drawn) [Example 30, 2-(N-(4-(6,8-dichloro-2-methyl-1,2,3,4-tetrahydroisoquinolin-4-yl)phenyl)sulfamoylamino)ethylphosphonic acid]",5 to 6,0.56 ×10⁻⁶ cm/s,–
"C/C(=C\c1cc(F)c(Oc2ccc(S(=O)(=O)NCc3ccc(CP(=O)(O)O)cc3)cc2)c(F)c1)C(=O)N=C(N)N [Example 52, (E)-4-((4-(4-(3-(diaminomethyleneamino)-2-methyl-3-oxoprop-1-enyl)-2,6-difluorophenoxy)phenylsulfonamido)methyl)benzylphosphonic acid]",5 to 6,1.61 ×10⁻⁶ cm/s,–
"CN1Cc2c(Cl)cc(Cl)cc2C(c2ccc(S(=O)(=O)NCc3ccc(CNS(=O)(=O)c4ccc(C5CN(C)Cc6c(Cl)cc(Cl)cc65)cc4)cc3)cc2)C1 (stereo not drawn) [Example 26, N,N′-(1,4-phenylenebis(methylene))bis(4-(6,8-dichloro-2-methyl-1,2,3,4-tetrahydroisoquinolin-4-yl)benzenesulfonamide)]",–,< 0.02 ×10⁻⁶ cm/s,–
"CN1Cc2c(Cl)cc(Cl)cc2C(c2cccc(S(=O)(=O)NCCP(=O)(O)O)c2)C1 (stereo not drawn) [Example 1, 2-(3-(6,8-dichloro-2-methyl-1,2,3,4-tetrahydroisoquinolin-4-yl)phenylsulfonamido)ethylphosphonic acid]",–,0.53 ×10⁻⁶ cm/s,AUC [4]: 53 ng·h/mL; Cmax [4]: 21 ng/mL
"NC(N)=Nc1nc(-c2cccc(N3CCN(C(=O)[C@H](O)[C@@H](O)[C@H](O)[C@H](O)CO)CC3)c2)c2cc(Cl)ccc2n1 [Example 63, 2-(6-chloro-4-(3-(4-((2R,3S,4R,5R)-2,3,4,5,6-pentahydroxyhexanoyl)piperazin-1-yl)phenyl)quinazolin-2-yl)guanidine]",5 to 6,0.43 ×10⁻⁶ cm/s,–
"CN1Cc2c(Cl)cc(Cl)cc2C(c2ccc(S(=O)(=O)NCCOCCOCCNC(=O)NCCCCNC(=O)NCCOCCOCCNS(=O)(=O)c3ccc(C4CN(C)Cc5c(Cl)cc(Cl)cc54)cc3)cc2)C1 (stereo not drawn) [Example 238, N,N′-(10,17-dioxo-3,6,21,24-tetraoxa-9,11,16,18-tetraazahexacosane-1,26-diyl)bis(4-(6,8-dichloro-2-methyl-1,2,3,4-tetrahydroisoquinolin-4-yl)benzenesulfonamide)]",–,–,% Fecal water (% of control) [2]: 121% of control; % Fecal water [2]: 60%
"CN1Cc2c(Cl)cc(Cl)cc2C(c2ccc(S(=O)(=O)NCCOCCOCCNS(=O)(=O)c3ccc(C4CN(C)Cc5c(Cl)cc(Cl)cc54)cc3)cc2)C1 (stereo not drawn) [Example 27, N,N′-(2,2′-(ethane-1,2-diylbis(oxy))bis(ethane-2,1-diyl))bis(4-(6,8-dichloro-2-methyl-1,2,3,4-tetrahydroisoquinolin-4-yl)benzenesulfonamide)]",–,< 0.02 ×10⁻⁶ cm/s,–
"NC(N)=Nc1nc(-c2ccc(N3CCN(CC(=O)O)CC3)cc2)c2cc(Cl)ccc2n1 [Example 61, 2-(4-(4-(6-chloro-2-(diaminomethyleneamino)quinazolin-4-yl)phenyl)piperazin-1-yl)acetic acid]",–,0.1 ×10⁻⁶ cm/s,–
"N=C(N)N1CCN(c2cccc(-c3nc(N=C(N)N)nc4ccc(Cl)cc34)c2)CC1 [Example 60, 4-(3-(6-chloro-2-(diaminomethyleneamino)quinazolin-4-yl)phenyl)piperazine-1-carboximidamide]",6 to 7,0.99 ×10⁻⁶ cm/s,–
"C/C(=C\c1cc(F)c(Oc2ccc(S(=O)(=O)NCCCP(=O)(O)O)cc2)c(F)c1)C(=O)N=C(N)N [Example 54, (E)-3-(4-(4-(3-(diaminomethyleneamino)-2-methyl-3-oxoprop-1-enyl)-2,6-difluorophenoxy)phenylsulfonamido)propylphosphonic acid]",5 to 6,1.3 ×10⁻⁶ cm/s,–
"C/C(=C\c1cc(F)c(Oc2ccc(S(=O)(=O)Nc3ccc(P(=O)(O)O)cc3)cc2)c(F)c1)C(=O)N=C(N)N [Example 51, (E)-4-(4-(4-(3-(diaminomethyleneamino)-2-methyl-3-oxoprop-1-enyl)-2,6-difluorophenoxy)phenylsulfonamido)phenylphosphonic acid]",–,0.2 ×10⁻⁶ cm/s,–
"C/C(=C\c1cc(F)c(Oc2ccc(S(=O)(=O)Nc3ccc(CP(=O)(O)O)cc3)cc2)c(F)c1)C(=O)N=C(N)N [Example 53, (E)-4-(4-(4-(3-(diaminomethyleneamino)-2-methyl-3-oxoprop-1-enyl)-2,6-difluorophenoxy)phenylsulfonamido)benzylphosphonic acid]",–,1.6 ×10⁻⁶ cm/s,–
